From ChEMBL document CHEMBL2021885, “Triphenylbutanamines: kinesin spindle protein inhibitors with in vivo antitumor activity” (J Med Chem, 2012)

How the values were obtained:
[1] = tested on: HCT-116; assay: Antiproliferative activity against human HCT116 cells after 72 hrs by Alamar blue assay; format: functional; details: HCT-116, 72 h
[2] = Antiproliferative activity against human hTERT-HME1 cells after 72 hrs by Alamar blue assay; format: cell-based
[3] = tested on: NCI-H1299; assay: Antiproliferative activity against human NCI-H1299 cells after 72 hrs by Alamar blue assay; format: functional; details: NCI-H1299, 72 h
[4] = tested on: BXPC-3; assay: Antiproliferative activity against human BxPC3 cells after 72 hrs by Alamar blue assay; format: functional; details: BXPC-3, 72 h
[5] = tested on: K562; assay: cells; details: Homo sapiens, K562, 72 h
Description: Antiproliferative activity against human K562 cells after 72 hrs by Alamar blue assay

[6] = target: T1, Kinesin-like protein KIF11 (Homo sapiens, UniProt P52732)
T1 sequence (P52732 whole entry): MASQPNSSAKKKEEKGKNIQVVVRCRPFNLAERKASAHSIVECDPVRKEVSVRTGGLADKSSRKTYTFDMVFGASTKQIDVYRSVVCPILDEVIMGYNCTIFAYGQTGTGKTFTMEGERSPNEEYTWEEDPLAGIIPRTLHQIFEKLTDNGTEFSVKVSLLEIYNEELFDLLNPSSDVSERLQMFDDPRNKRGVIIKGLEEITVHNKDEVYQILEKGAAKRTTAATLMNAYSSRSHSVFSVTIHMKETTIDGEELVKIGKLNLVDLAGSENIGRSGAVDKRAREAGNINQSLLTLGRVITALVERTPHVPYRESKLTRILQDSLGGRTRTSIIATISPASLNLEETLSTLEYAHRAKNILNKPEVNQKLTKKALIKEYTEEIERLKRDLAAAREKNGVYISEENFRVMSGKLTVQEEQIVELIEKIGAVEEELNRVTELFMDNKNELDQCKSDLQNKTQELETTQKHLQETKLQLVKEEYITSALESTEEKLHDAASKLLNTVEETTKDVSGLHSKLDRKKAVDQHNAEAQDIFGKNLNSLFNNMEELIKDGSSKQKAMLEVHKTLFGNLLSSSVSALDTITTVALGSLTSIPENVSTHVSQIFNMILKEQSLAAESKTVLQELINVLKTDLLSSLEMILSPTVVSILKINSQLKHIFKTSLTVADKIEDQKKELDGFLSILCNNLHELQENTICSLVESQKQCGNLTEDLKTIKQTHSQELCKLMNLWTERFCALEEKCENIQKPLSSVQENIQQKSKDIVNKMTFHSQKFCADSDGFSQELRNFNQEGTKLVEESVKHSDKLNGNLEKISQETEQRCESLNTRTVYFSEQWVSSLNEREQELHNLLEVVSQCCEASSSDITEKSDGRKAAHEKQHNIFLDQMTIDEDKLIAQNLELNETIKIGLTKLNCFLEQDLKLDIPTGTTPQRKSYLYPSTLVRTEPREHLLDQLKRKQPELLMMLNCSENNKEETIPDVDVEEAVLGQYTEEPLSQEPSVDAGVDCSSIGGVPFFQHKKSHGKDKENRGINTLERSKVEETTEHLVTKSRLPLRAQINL

[7] = Half life at pH 1.0 assessed as compound hydrolysis; format: physicochemical; details: buffer
[8] = tested on: Liver microsomes; assay: Intrinsic clearance in human liver microsomes assessed as per mg of protein; format: ADME, Microsome
[9] = tested on: Liver; assay: Intrinsic clearance in mouse liver microsomes assessed as per mg of protein; format: ADME, Microsome
[10] = Intrinsic clearance in human hepatocytes assessed as per million cells; format: ADME, cell-based, Hepatocyte
[11] = target: T1, Kinesin-like protein KIF11; remark: listed apart in the source
[12] = Distribution coefficient, log D of the compound at pH 7.4; format: physicochemical; details: octanol/water
[13] = Lipophilicity, Log P of the compound; format: physicochemical; details: octanol/water
[14] = Dissociation constant, pKa of the compound; format: physicochemical
[15] = Apparent permeability of the compound by PAMPA method; format: ADME

| Compound | GI50 [1] [nM] | GI50 at 72 h [2] [nM] | GI50 [3] [nM] | GI50 [4] [nM] | GI50 [5] [nM] | other results |
| --- | --- | --- | --- | --- | --- | --- |
| NCCCC(c1ccccc1)(c1ccccc1)c1ccccc1 | 213 | 572 | 964 | 1220 | – | – |
| NCCSC(c1ccccc1)(c1ccccc1)c1cccc(CN)c1 | – | – | – | – | 2020 | – |
| N[C@@H](CSC(c1ccccc1)(c1ccccc1)c1ccc2ccccc2c1)C(=O)O | 153 | 119 | 227 | 245 | 247 | Ki [6]: 4.2 nM |
| NCCOC(c1ccccc1)(c1ccccc1)c1ccccc1 | – | – | – | – | – | t1/2 [7]: 2.5 h |
| Cc1cccc(C(CC[C@H](N)C(=O)O)(c2ccccc2)c2ccccc2)c1 | 95 | 42 | 281 | 180 | – | CLH [8]: Stable; CLH [9]: Stable; CLH [10]: Stable |
| CC(=O)NCc1cccc(C(SCCN)(c2ccccc2)c2ccccc2)c1 | – | – | – | – | 2130 | – |
| Cc1ccc(C(CCC(N)C(=O)O)(c2ccccc2)c2ccccc2)cc1 (racemic) | 84 | 44 | 204 | 151 | – | – |
| N#Cc1ccc(C(SCCN)(c2ccccc2)c2ccccc2)cc1 | – | – | – | – | 2180 | Ki [11]: 432 nM |
| CS(=O)(=O)c1ccc(C(SCCN)(c2ccccc2)c2ccccc2)cc1 | – | – | – | – | 2740 | – |
| CC(=O)c1ccc(C(SCCN)(c2ccccc2)c2ccccc2)cc1 | – | – | – | – | 705 | – |
| CC(=O)c1cccc(C(SC[C@H](N)C(=O)O)(c2ccccc2)c2ccccc2)c1 | – | – | – | – | 964 | – |
| Cc1ccc(C(=O)N(CCCN)[C@@H](c2nc3cc(Cl)ccc3c(=O)n2Cc2ccccc2)C(C)C)cc1 [ISPINESIB] | – | 32 | – | – | 71 | logD [12]: 2.66; CLH [8]: Stable; CLH [9]: Stable; CLH [10]: 0.75 µL/min; logP [13]: 4.75; pKa [14]: 9.34 |
| COc1ccc(C(SC[C@H](N)C(=O)O)(c2ccccc2)c2ccccc2)cc1 | – | 81 | – | – | – | – |
| N[C@@H](CNC(c1ccccc1)(c1ccccc1)c1ccccc1)C(=O)O | – | – | – | – | – | t1/2 [7]: <= 2.9 hr |
| NCCSC(c1ccccc1)(c1ccccc1)c1cccc(C(F)(F)F)c1 | – | – | – | – | – | Ki [11]: 353 nM |
| NCCCC(c1ccccc1)(c1ccccc1)c1ccc(Cl)cc1 | 230 | 308 | 828 | 2310 | 337 | – |
| N[C@@H](CCC(c1ccccc1)(c1ccccc1)c1ccccc1)C(=O)O | 1600 | 721 | 4020 | 4860 | 2060 | – |
| Cc1cccc(C(CC[C@@H](N)C(=O)O)(c2ccccc2)c2ccccc2)c1 | 51 | 26 | 132 | 75 | – | CLH [8]: Stable; CLH [9]: Stable; CLH [10]: Stable |
| CC(C)c1cccc(C(SCCN)(c2ccccc2)c2ccccc2)c1 | – | – | – | – | 581 | – |
| Cc1ccc(C(CCCN)(c2ccccc2)c2ccccc2)cc1 | 154 | 601 | 376 | 1600 | – | – |
| NCCSC(c1ccccc1)(c1ccccc1)c1ccc(CO)cc1 | – | – | – | – | 783 | – |
| NCCSC(c1ccccc1)(c1ccccc1)c1ccc(C(N)=O)cc1 | – | – | – | – | 4340 | – |
| NCCSC(c1ccccc1)(c1ccccc1)c1cccc(Cl)c1 | – | – | – | – | 1040 | Ki [11]: 298 nM |
| NCCSC(c1ccccc1)(c1ccccc1)c1cccc(C(=O)O)c1 | – | – | – | – | 2140 | – |
| Cc1ccc(C(SC[C@H](N)C(=O)O)(c2ccccc2)c2ccccc2)cc1 | 130 | 57 | 242 | 284 | 242 | Ki [6]: 13.6 nM |
| N[C@@H](CSC(c1ccccc1)(c1ccccc1)c1cccc(O)c1)C(=O)O | – | – | – | – | 2560 | Ki [11]: 48.8 nM; Papp [15]: impermeable |
